Results published in patent US8557818B2, “Compounds useful as protein kinase inhibitors” (Vertex Phamaceuticals Incorporated, priority 2006, dated 2013).

target: PLK1 (Homo sapiens, UniProt P53350); test: PLK1 Inhibition Assay 1 (radioactive-phosphate incorporation assay); type: biochemical; details: Ki(app), [γ-33P]ATP 350 μM, peptide 450 μM, 1 nM PLK1 for values of <1 nM
Experimental: Compounds of the present invention are evaluated as inhibitors of human PLK using the following assays.
Compounds were screened for their ability to inhibit PLK1 using a radioactive-phosphate incorporation assay. Assays were carried out in a mixture of 25 mM HEPES (pH 7.5), 10 mM MgCl2, 0.1% BSA, and 2 mM DTT. Final substrate concentrations were 150 μM (350 μM for determining values of <1 nM) [γ-33P]ATP (115 mCi 33P ATP/mmol ATP, Amersham Pharmacia Biotech/Sigma Chemicals) and 300 μM (450 μM for determining values of <1 nM) peptide (KKKISDELMDATFADQEAK)[SEQ ID:1]. Assays were carried out at 25° C. in the presence of 4 nM (1 nM for determining values of <1 nM) PLK1. An assay stock buffer solution was prepared containing all of the reagents listed above, with the exception of ATP and the test compound of interest. 30 μL of the stock solution was placed in a 96 well plate followed by addition of 2 μL of DMSO stock containing serial dilutions of the test compound (typically starting from a final concentration of 10 μM with 2-fold serial dilutions) in duplicate (final DMSO concentration 5%). The plate was pre-incubated for 10 minutes at 25° C. and the reaction initiated by addition of 8 μL [γ-33P]ATP (final concentration 150 μM (350 μM for determining values of <1 nM))).
The reaction was stopped after 90 minutes (240 minutes for determining values of <1 nM) by the addition of 100 μL 0.14M phosphoric acid. A multiscreen phosphocellulose filter 96-well plate (Millipore, Cat no. MAPHN0B50) was pretreated with 100 μL 0.2M phosphoric acid prior to the addition of 125 μL of the stopped assay mixture. The plate was washed with 4×200 μL 0.2M phosphoric acid. […]
After removing mean background values for all of the data points, Ki(app) data were calculated from non-linear regression analysis of the initial rate data using the Prism software package (GraphPad Prism version 3.0cx for Macintosh, GraphPad Software, San Diego Calif., USA).

PLK1, sequence (P53350 whole entry): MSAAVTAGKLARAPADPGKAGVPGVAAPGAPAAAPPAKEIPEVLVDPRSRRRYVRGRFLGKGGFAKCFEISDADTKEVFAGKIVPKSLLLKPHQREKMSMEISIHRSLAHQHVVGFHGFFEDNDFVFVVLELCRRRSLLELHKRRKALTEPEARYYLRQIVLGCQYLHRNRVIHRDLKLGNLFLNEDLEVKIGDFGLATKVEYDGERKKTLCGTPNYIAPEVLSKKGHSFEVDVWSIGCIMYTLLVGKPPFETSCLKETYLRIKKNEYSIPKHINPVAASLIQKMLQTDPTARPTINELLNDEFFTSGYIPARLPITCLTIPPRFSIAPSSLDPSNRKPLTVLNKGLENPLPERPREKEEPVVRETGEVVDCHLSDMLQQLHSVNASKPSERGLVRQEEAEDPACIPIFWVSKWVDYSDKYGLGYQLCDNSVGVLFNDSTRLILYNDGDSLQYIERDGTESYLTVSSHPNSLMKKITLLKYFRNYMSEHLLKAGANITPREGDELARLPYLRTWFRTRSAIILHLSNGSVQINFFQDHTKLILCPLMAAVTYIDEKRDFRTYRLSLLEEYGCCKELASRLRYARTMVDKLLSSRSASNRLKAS

Ki, < 1 nM:
CC[C@@H]1c2c(C(=O)O)ncn2-c2cnc(Nc3ccc(C(=O)NC)cc3OC)nc2N1C1CCCC1 [Compound I-2, (R)-3-(4-(methylcarbamoyl)-2-methoxyphenylamino)-5-cyclopentyl-6-ethyl-5,6-dihydroimidazo[1,5-f]pteridine-7-carboxylic acid]
CC[C@@H]1c2cncn2-c2cnc(Nc3ccc(C(=O)NC)cc3OC)nc2N1C1CCCC1 [Compound I-4, (R)-4-(5-cyclopentyl-6-ethyl-5,6-dihydroimidazo[1,5-f]pteridin-3-ylamino)-3-methoxy-N-methylbenzamide]
CC[C@@H]1c2cncn2-c2cnc(Nc3ccc(C(=O)NC4CC4)cc3OC)nc2N1C1CCCC1 [Compound I-6, (R)-4-(5-cyclopentyl-6-ethyl-5,6-dihydroimidazo[1,5-f]pteridin-3-ylamino)-N-cyclopropyl-3-methoxybenzamide]
